Here are results for four compounds from patent publication US4143032A, “Hexapeptides having analgesic activities” (American Home Products Corporation, priority 1977, dated 1979).

Non-standard residues stand in square brackets, D forms with d. Residues, ends and D or L forms follow the SMILES beside them.

The test system of assay [1] is rats. The assay can be described thus: rat-tail flick method of D'Amour and Smith (analgesic activity). The class given is in vivo. To be noted: single dose. As to the method:
In this procedure, a single intravenous dose of from 0.5 to 20 mg/kg., will produce analgesia in the rat. Preferably, a dose of from 1 to 10 mg/kg. is employed. The exact dose to be employed will vary depending on the particular compound employed and the degree of analgesia desired. The determination of the precise dose to produce the desired effect will be readily ascertained by those skilled in the art. With representative compound H-Arg-Tyr-D-Ala-Gly-Phe-D-Leu-NH2, the following results were obtained: […]
In general terms: Thermal pain tests record how soon the animal reacts.

Another assay concerns mouse vas deferens. To be noted: cited from earlier work.
The subject of another assay is guinea pig ileum. To be noted: cited from earlier work.
For assay [2] the following is noted: peripheral administration, for example intravenous; cited from earlier work.
The next assay deals with opiate receptor. To be noted: brain homogenates; cited from earlier work.
The subject of assay [3] is rats. To be noted: injection in the brain ventricle in rats; fully reversible by naloxone; cited from earlier work.
The conditions of assay [4]: administered intracerebroventricularly; cited from earlier work.

As for `CC(=O)O.CC(=O)O.CC(C)C[C@@H](NC(=O)[C@H](Cc1ccccc1)NC(=O)CNC(=O)[C@@H](C)NC(=O)[C@H](Cc1ccc(O)cc1)NC(=O)[C@@H](N)CCCNC(=N)N)C(N)=O` [H-Arg-Tyr-D-Ala-Gly-Phe-D-Leu-NH2, L-Arginyl-L-Tyrosyl-D-Alanyl-Glycyl-L-Phenylalanyl-D-Leucyl Amide Diacetate] (H-RY[dA]GF[dL]-NH2), the “No. Showing Analgesic/No. Tested” value in the assay with rats [1] (1.0 mg/kg. i.v.) is 2/6; in the assay on rats [1] (2.5 mg/kg. i.v.), 2/6; with rats [1] (5 mg/kg. i.v.), 6/6.

Regarding “H-Tyr-Gly-Gly-Phe-Met-OH [methionine-enkephalin]”, the “ability to block electrically evoked contractions” value in the assay on mouse vas deferens and with guinea pig ileum was “block electrically evoked contractions” throughout. For the same compound, the peripheral activity result in assay [2] is “inactive peripherally”. Also, the “inhibition of stereospecific receptor binding of 3H-naloxone” value with opiate receptor is “inhibit the stereospecific receptor binding”. The analgesia entry in the assay with rats [3] is “induce a profound analgesia”.

As to Tyr-D-Ala-Gly-Phe-D-Leu, in assay [4], the activity entry is “activity”.

In the case of “H-Tyr-Gly-Gly-Phe-Leu-OH [leucine-enkephalin]”, the “ability to block electrically evoked contractions” value in the assay with mouse vas deferens and with guinea pig ileum was “block electrically evoked contractions” in each case. Moreover, in assay [2], the peripheral activity result was “inactive peripherally”. The “inhibition of stereospecific receptor binding of 3H-naloxone” value with opiate receptor is on record as “inhibit the stereospecific receptor binding”. Also, the analgesia result with rats [3] is recorded as “induce a profound analgesia”.
